From PubChem BioAssay AID282 (DTP/NCI, 2004)
Values joined by “and” are separate entries in the source; they are usually repeats but may differ in a detail not shown here. Identical values can stand only once. Inconclusive results and toxic doses are left out.

System: BDF1 mice, L1210 terephthalanilide-resistant leukemia ip, survival T/C
Experiment: NCI In Vivo Anticancer Drug Screen. Data for tumor model L1210 Leukemia resistant to A Terephthalanilide; NSC 38280 (intraperitoneal) in B6D2F1 (BDF1) mice
Settings: endpoint: mean survival time, higher = longer survival
Experimental: The antitumor activity of compounds was measured in mice bearing transplantable tumors. Survival or tumor size were measured and the results are expressed as the measurement made in the treated group (T) divided by the measurement made in the vehicle treated control group (C). The tumor model used in this assay is L1210 Leukemia resistant to A Terephthalanilide; NSC 38280 (intraperitoneal) in B6D2F1 (BDF1) mice

[1] = dose: 25.0 mg/kg/injection, schedule: Q01DX010 (ip), vehicle: saline
[2] = dose: 50.0 mg/kg/injection, schedule: Q01DX Z (ip), vehicle: saline
[3] = dose: 5.0 mg/kg/injection, schedule: Q01DX Z (ip), vehicle: saline
[4] = dose: 10.0 mg/kg/injection, schedule: Q01DX Z (ip), vehicle: saline
[5] = dose: 0.5 mg/kg/injection, schedule: Q01DX010 (ip), vehicle: saline
[6] = dose: 2.0 mg/kg/injection, schedule: Q01DX010 (ip), vehicle: saline
[7] = dose: 4.0 mg/kg/injection, schedule: Q01DX010 (ip), vehicle: saline
[8] = dose: 8.0 mg/kg/injection, schedule: Q01DX010 (ip), vehicle: saline
[9] = dose: 16.0 mg/kg/injection, schedule: Q01DX010 (ip), vehicle: saline
[10] = dose: 32.0 mg/kg/injection, schedule: Q01DX010 (ip), vehicle: saline
[11] = dose: 64.0 mg/kg/injection, schedule: Q01DX010 (ip), vehicle: saline
[12] = dose: 250.0 mg/kg/injection, schedule: Q01DX Z (ip), vehicle: saline
[13] = dose: 500.0 mg/kg/injection, schedule: Q01DX Z (ip), vehicle: saline
[14] = dose: 25.0 mg/kg/injection, schedule: Q01DX Z (ip), vehicle: carboxymethylcellulose (CMC)
[15] = dose: 50.0 mg/kg/injection, schedule: Q01DX010 (ip), vehicle: saline
[16] = dose: 100.0 mg/kg/injection, schedule: Q01DX010 (ip), vehicle: saline
[17] = dose: 20.0 mg/kg/injection, schedule: Q01DX Z (ip), vehicle: saline

With `CCCNc1ncnc2[nH]ncc12` the T/C (dose: 3.13 mg/kg/injection, schedule: Q01DX010 (ip), vehicle: saline) was 92 % of control and 103 % of control, the T/C (dose: 6.25 mg/kg/injection, schedule: Q01DX010 (ip), vehicle: saline) was 96 % of control and 108 % of control and the T/C (dose: 12.5 mg/kg/injection, schedule: Q01DX010 (ip), vehicle: saline) was 95 % of control and 101 % of control. The T/C (dose: 12.5 mg/kg/injection, schedule: Q01DX Z (ip), vehicle: saline) was 115 % of control, the T/C [1] was 92 % of control and 106 % of control and the T/C [2] was 93 % of control.
For `O=P1(N(CCCl)CCCl)NCCCO1` (centres undefined), the T/C [3] was 102 % of control, the T/C [4] was 124 % of control and the T/C (dose: 15.0 mg/kg/injection, schedule: Q01DX Z (ip), vehicle: saline) was 122 % of control. For the same molecule, the T/C (dose: 25.0 mg/kg/injection, schedule: Q01DX Z (ip), vehicle: saline) was 160 % of control, the T/C (dose: 37.5 mg/kg/injection, schedule: Q01DX Z (ip), vehicle: saline) was 200 % of control and the T/C [2] was 166 % of control and 239 % of control. The T/C (dose: 75.0 mg/kg/injection, schedule: Q01DX Z (ip), vehicle: saline) was 102 % of control and the T/C (dose: 200.0 mg/kg/injection, schedule: Q01DX Z (ip), vehicle: saline) was 100 % of control.
With `Nc1nc(N)c2nc(CNc3ccc(C(=O)NC(CCC(=O)O)C(=O)O)cc3)cnc2n1` (centres undefined) the T/C (dose: 0.03 mg/kg/injection, schedule: Q01DX010 (ip), vehicle: other) was 99 % of control and 109 % of control, the T/C (dose: 0.05 mg/kg/injection, schedule: Q01DX010 (ip), vehicle: other) was 123 % of control and 101 % of control and the T/C (dose: 0.1 mg/kg/injection, schedule: Q01DX010 (ip), vehicle: other) was 122 % of control and 124 % of control.
With `NC(Cc1c[nH]c2ccc(N(CCCl)CCCl)cc12)C(=O)O` (centres undefined) the T/C [5] was 117 % of control, the T/C (dose: 1.0 mg/kg/injection, schedule: Q01DX010 (ip), vehicle: saline) was 108 % of control and the T/C [6] was 120 % of control. The T/C [7] was 233 % of control.
`O=C(Nc1ccc(C2=NCCN2)cc1)c1cccc(C(=O)Nc2ccc(C3=NCCN3)cc2)c1` was tested, and the T/C [8] was 94 % of control and 101 % of control, the T/C [9] was 105 % of control and 110 % of control and the T/C [10] was 106 % of control and 110 % of control. The T/C [11] was 120 % of control.
`O=c1cnn(C2OC(CO)C(O)C2O)c(=O)[nH]1` (centres undefined) was tested, and the T/C [2] was 172 % of control, the T/C (dose: 100.0 mg/kg/injection, schedule: Q01DX Z (ip), vehicle: saline) was 164 % of control and the T/C (dose: 187.0 mg/kg/injection, schedule: Q01DX Z (ip), vehicle: saline) was 181 % of control. The T/C [12] was 224 % of control, the T/C (dose: 375.0 mg/kg/injection, schedule: Q01DX Z (ip), vehicle: saline) was 218 % of control and the T/C [13] was 225 % of control. For the same molecule, the T/C (dose: 750.0 mg/kg/injection, schedule: Q01DX Z (ip), vehicle: saline) was 222 % of control, the T/C (dose: 800.0 mg/kg/injection, schedule: Q01DX010 (ip), vehicle: saline) was 167 % of control and the T/C (dose: 1000.0 mg/kg/injection, schedule: Q01DX Z (ip), vehicle: saline) was 182 % of control. For the same molecule, the T/C (dose: 1600.0 mg/kg/injection, schedule: Q01DX010 (ip), vehicle: saline) was 86 % of control.
With `O=C(Nc1cccc(C(=O)Nc2ccc(C3=NCCN3)cc2)c1)c1ccc(C2=NCCN2)cc1` the T/C (dose: 54.0 mg/kg/injection, schedule: Q01DX010 (ip), vehicle: saline) was 90 % of control.
For `N#CCSc1ncnc2nc[nH]c12`, the T/C [14] was 122 % of control, the T/C (dose: 30.0 mg/kg/injection, schedule: Q01DX010 (ip), vehicle: saline) was 112 % of control and 113 % of control and the T/C (dose: 60.0 mg/kg/injection, schedule: Q01DX010 (ip), vehicle: saline) was 109 % of control and 115 % of control. The T/C (dose: 100.0 mg/kg/injection, schedule: Q01DX Z (ip), vehicle: carboxymethylcellulose (CMC)) was 150 % of control and the T/C (dose: 120.0 mg/kg/injection, schedule: Q01DX010 (ip), vehicle: saline) was 91 % of control.
For `C#CCN(C)Cc1ccccc1`, the T/C [15] was 91 % of control, the T/C [16] was 102 % of control and the T/C (dose: 200.0 mg/kg/injection, schedule: Q01DX010 (ip), vehicle: saline) was 93 % of control.
`O=C(Nc1ccc(NC2=NCCN2)cc1)c1ccc(C(=O)Nc2ccc(NC3=NCCN3)cc2)cc1` was tested, and the T/C [6] was 112 % of control and 113 % of control, the T/C [7] was 115 % of control and the T/C [9] was 122 % of control and 115 % of control.
`CC/C(=C(/CC)c1ccc(O)cc1)c1ccc(O)cc1` was tested, and the T/C (dose: 12.5 mg/kg/injection, schedule: Q01DX010 (sc), vehicle: steriod suspending solution) was 96 % of control and 102 % of control, the T/C (dose: 25.0 mg/kg/injection, schedule: Q01DX010 (sc), vehicle: steriod suspending solution) was 89 % of control and 102 % of control and the T/C (dose: 50.0 mg/kg/injection, schedule: Q01DX010 (sc), vehicle: steriod suspending solution) was 102 % of control and 103 % of control. For the same molecule, the T/C (dose: 100.0 mg/kg/injection, schedule: Q01DX010 (sc), vehicle: steriod suspending solution) was 96 % of control and 98 % of control.
In the case of `Nc1nc2n[nH]nc2c(=O)[nH]1`, the T/C (dose: 6.25 mg/kg/injection, schedule: Q01DX Z (ip), vehicle: water) is reported as 106 % of control, the T/C (dose: 12.5 mg/kg/injection, schedule: Q01DX Z (ip), vehicle: water) is reported as 113 % of control and the T/C (dose: 400.0 mg/kg/injection, schedule: Q01DX Z (ip), vehicle: water) is reported as 95 % of control.
With `O=C(Nc1ccc(C2=NCCN2)cc1)c1ccc(C(=O)Nc2ccc(C3=NCCN3)cc2)c(Cl)c1` the T/C (dose: 2.0 mg/kg/injection, schedule: Q01DX010 (ip), vehicle: other) was 98 % of control and 100 % of control, the T/C (dose: 4.0 mg/kg/injection, schedule: Q01DX010 (ip), vehicle: other) was 107 % of control and 110 % of control and the T/C (dose: 8.0 mg/kg/injection, schedule: Q01DX010 (ip), vehicle: other) was 107 % of control and 117 % of control. For the same molecule, the T/C (dose: 16.0 mg/kg/injection, schedule: Q01DX010 (ip), vehicle: other) was 122 % of control and 107 % of control and the T/C (dose: 32.0 mg/kg/injection, schedule: Q01DX010 (ip), vehicle: other) was 120 % of control and 112 % of control.
`C1CN1c1nc(N2CC2)nc(N2CC2)n1` was tested, and the T/C (dose: 0.13 mg/kg/injection, schedule: Q01DX010 (ip), vehicle: saline) was 108 % of control, the T/C (dose: 0.25 mg/kg/injection, schedule: Q01DX010 (ip), vehicle: saline) was 99 % of control and the T/C [5] was 104 % of control.
`CCOC(=O)NP(=O)(N1CC1(C)C)N1CC1(C)C` (centres undefined) was tested, and the T/C [3] was 101 % of control, the T/C [4] was 115 % of control and the T/C [17] was 121 % of control. For the same molecule, the T/C (dose: 40.0 mg/kg/injection, schedule: Q01DX Z (ip), vehicle: saline) was 151 % of control, the T/C (dose: 62.0 mg/kg/injection, schedule: Q01DX Z (ip), vehicle: saline) was 164 % of control and the T/C (dose: 125.0 mg/kg/injection, schedule: Q01DX Z (ip), vehicle: saline) was 236 % of control. For the same molecule, the T/C [12] was 302 % of control and the T/C [13] was 100 % of control.
`N#[N+]c1cnc([O-])[nH]c1=O` was tested, and the T/C (dose: 1.25 mg/kg/injection, schedule: Q01DX010 (ip), vehicle: saline) was 110 % of control, the T/C (dose: 2.5 mg/kg/injection, schedule: Q01DX Z (ip), vehicle: alkali diluted with saline) was 102 % of control and the T/C (dose: 5.0 mg/kg/injection, schedule: Q01DX Z (ip), vehicle: alkali diluted with saline) was 102 % of control. For the same molecule, the T/C (dose: 7.5 mg/kg/injection, schedule: Q01DX Z (ip), vehicle: alkali diluted with saline) was 106 % of control, the T/C [4] was 172 % of control and the T/C (dose: 15.0 mg/kg/injection, schedule: Q01DX Z (ip), vehicle: alkali diluted with saline) was 108 % of control. For the same molecule, the T/C [17] was 96 % of control.
For `O=c1c(O)cccc2cc(O)c(O)c(O)c12`, the T/C [1] was 98 % of control, the T/C [15] was 93 % of control and the T/C [16] was 89 % of control.
`O=c1[nH]c(=O)n(C2CC(O)C(CO)O2)cc1I` (centres undefined) was tested, and the T/C (dose: 500.0 mg/kg/injection, schedule: Q01DX Z (ip), vehicle: carboxymethylcellulose (CMC)) was 151 % of control.
With `c1ccc(CNc2ncnc3[nH]ncc23)cc1` the T/C [8] was 102 % of control and 107 % of control, the T/C (dose: 12.5 mg/kg/injection, schedule: Q01DX Z (ip), vehicle: carboxymethylcellulose (CMC)) was 97 % of control and the T/C [9] was 103 % of control and 114 % of control. The T/C [14] was 109 % of control, the T/C [10] was 107 % of control and the T/C (dose: 37.5 mg/kg/injection, schedule: Q01DX Z (ip), vehicle: carboxymethylcellulose (CMC)) was 116 % of control. For the same molecule, the T/C (dose: 50.0 mg/kg/injection, schedule: Q01DX Z (ip), vehicle: carboxymethylcellulose (CMC)) was 97 % of control and the T/C [11] was 99 % of control and 103 % of control.
